Data taken from US5914324A, “6-Hydroxy and 6-oxo-androstane derivatives active on the cardiovascular system and pharmaceutical compositions containing same” (Sigma-Tau Industrie Farmaceutiche Riunite S.p.A., priority 1996, dated 1999).
Counter-ions that a name gives are not always drawn.

Tests used:
guinea pig left atrium = assay: inotropic activity in vitro, electrically paced guinea pig left atrium; conditions: Cavia porcellus
[1] = acute toxicity mouse oral; conditions: in vivo
Text: Finally the compounds of the invention have a low toxicity when compared with standard cardiotonic steroids.

Na+,K+-ATPase [2] = target: T1, Na+,K+-ATPase (Canis lupus familiaris, UniProt P50997); assay: inhibition of the activity of the purified Na+,K+-ATPase (hydrolysis of 32P-ATP); assay type: biochemical; conditions: purified enzyme
T1 construct: Na^+,K^+ -ATPase receptor purified according to Jorghensen; from tissue
Text: (§1) To test the affinity for the receptor site of the Na^+,K^+ -ATPase and the inhibitory activity on the enzyme, the following tests were used: a) displacement of the specific 3H-ouabain binding from the Na^+,K^+ -ATPase receptor purified according to Jorghensen (Jorghensen P., BBA.

Na+,K+-ATPase [3] = target: T1, Na+,K+-ATPase; assay: displacement of the specific 3H-ouabain binding from the Na+,K+-ATPase receptor; conditions: displacement of specific 3H-ouabain binding, purified enzyme
Text: as §1

| Structure (SMILES) | EC50 (guinea pig left atrium) [nM] | LD50 [1] [mg/kg] | IC50 (Na+,K+-ATPase [2]) [nM] | EC50 (Na+,K+-ATPase [3]) [nM] |
| --- | --- | --- | --- | --- |
| C[C@H]1O[C@@H](O[C@H]2[C@@H](O)C[C@H](O[C@H]3[C@@H](O)C[C@H](O[C@H]4CC[C@@]5(C)[C@H](CC[C@@H]6[C@@H]5C[C@@H](O)[C@]5(C)[C@@H](C7=CC(=O)OC7)CC[C@]65O)C4)O[C@@H]3C)O[C@@H]2C)C[C@H](O)[C@@H]1O [Digoxin, reference compound] | 500 | 18 | – | – |
| C[C@]12CCC(=NOCCN)C[C@@H]1[C@@H](O)C[C@@H]1[C@@H]2CC[C@]2(C)[C@@H](O)CC[C@@H]12 [I-a, (E,Z)-3-(2-aminoethoxyimino)-5α-androstan-6α,17β-diol oxalate] | 2500 | > 600 | 1600 | 100 |
| C[C@]12CC[C@H](/C=N\OCCN)C[C@@H]1[C@@H](O)C[C@@H]1[C@@H]2CC[C@]2(C)[C@@H](O)CC[C@@H]12.O=C(O)C(=O)O [I-d, (Z)-3β-(2-aminoethoxyiminomethyl)-5α-androstan-6α,17β-diol oxalate] | 10500 | > 600 | 1600 | 130 |
| CN(C)CCO/N=C\[C@H]1CC[C@@]2(C)[C@H](C1)[C@@H](O)C[C@@H]1[C@@H]2CC[C@]2(C)[C@@H](O)CC[C@@H]12 [I-e, (Z)-3β-(2-N,N-dimethylaminoethoxyiminomethyl)-5α-androstan-6α,17β-diol oxalate] | 5600 | > 600 | 2000 | 160 |
| CN(C)CCO/N=C/C=C1\CC[C@@]2(C)[C@H](C1)[C@@H](O)C[C@@H]1[C@@H]2CC[C@]2(C)[C@@H](O)CC[C@@H]12 [I-f, (E)-3-[3-(2-N,N-dimethylaminoethoxyimino)(E)-propen-1-yl)-5α-androstan-6α,17β-diol] | 800 | 560 | 1000 | 100 |
| C[C@]12CCC(=NOCCN)C[C@@H]1C(=O)C[C@@H]1[C@@H]2CC[C@]2(C)C(=O)CC[C@@H]12 [I-h, (E,Z)-3-(2-aminoethoxyimino)-5α-androstan-6,17-dione emioxalate] | 600 | 520 | 300 | 20 |
| CN(C)CCO/N=C1/CC[C@@]2(C)[C@H](C1)C(=O)C[C@@H]1[C@@H]2CC[C@]2(C)C(=O)CC[C@@H]12 [I-i, (Z)-3-(2-N,N-dimethylaminoethoxyimino)-5α-androstan-6,17-dione] | 7100 | > 1000 | 12000 | 500 |
| CN(C)CCO/N=C/C=C1\CC[C@@]2(C)[C@H](C1)C(=O)C[C@@H]1[C@@H]2CC[C@]2(C)C(=O)CC[C@@H]12 [I-k, (E)-3-[3-(2-N,N-dimethylaminoethoxyimino)(E)-propen-1-yl)-5α-androstan-6,17-dione oxalate] | 12600 | > 600 | 3200 | 320 |
| CN(C)CCCO[C@H]1CC[C@@]2(C)[C@H](C1)C(=O)C[C@@H]1[C@@H]2CC[C@]2(C)C(=O)CC[C@@H]12 [I-m, 3β-(3-N,N-dimethylaminopropoxy)-5α-androstan-6,17-dione] | 20000 | > 1000 | 50000 | 1300 |
